Key:
HA1 adenosine receptor = target: T1, HA1 adenosine receptor (Homo sapiens, UniProt P30542); experiment: Human adenosine A1 receptor affinity (Ki hA1); assay type: binding; conditions: affinity to human adenosine A1 receptor
T1 sequence (P30542 1-326): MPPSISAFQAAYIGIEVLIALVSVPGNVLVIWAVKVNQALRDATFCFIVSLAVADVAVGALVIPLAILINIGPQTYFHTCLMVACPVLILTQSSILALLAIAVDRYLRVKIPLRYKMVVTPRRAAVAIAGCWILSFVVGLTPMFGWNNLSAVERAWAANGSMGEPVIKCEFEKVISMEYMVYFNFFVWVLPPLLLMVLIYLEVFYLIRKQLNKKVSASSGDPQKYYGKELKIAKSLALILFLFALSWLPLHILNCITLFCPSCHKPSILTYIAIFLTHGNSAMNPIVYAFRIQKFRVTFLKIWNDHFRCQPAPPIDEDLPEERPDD

[1] = target: T2, human adenosine A2A receptor (Homo sapiens, UniProt P29274); experiment: Human adenosine A2A receptor [3H]-SCH-58261 binding assay; conditions: for Ki: affinity to human adenosine A2A receptor, read-out: Ki HA2A; for selectivity (A1/A2a): calculated ratio of the affinity to the HA1 receptor to the HA2a receptor
T2 construct: expressed in transfected cells; host or cells: CHO cells, Semliki Forest virus expression system; membrane preparation
T2 sequence (P29274 whole entry): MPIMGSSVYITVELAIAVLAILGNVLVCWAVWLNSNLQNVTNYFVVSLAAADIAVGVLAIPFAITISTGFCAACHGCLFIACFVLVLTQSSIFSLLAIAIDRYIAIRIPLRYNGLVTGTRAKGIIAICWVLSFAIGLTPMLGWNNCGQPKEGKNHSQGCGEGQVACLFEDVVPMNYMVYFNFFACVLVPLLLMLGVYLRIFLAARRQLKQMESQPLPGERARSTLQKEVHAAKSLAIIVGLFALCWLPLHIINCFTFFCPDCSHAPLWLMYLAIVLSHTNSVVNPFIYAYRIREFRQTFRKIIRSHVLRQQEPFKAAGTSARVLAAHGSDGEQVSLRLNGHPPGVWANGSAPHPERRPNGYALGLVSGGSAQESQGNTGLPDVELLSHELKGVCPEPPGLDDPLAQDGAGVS

Compound	Ki (HA1 adenosine receptor)	Ki [1]	selectivity (A1/A2a) [1]
CCCN(CC1CC1)C(=O)c1cc(N)n2nc(-c3ccc(Br)o3)nc2c1 [Example 298, 5-Amino-2-(5-bromo-furan-2-yl)-[1,2,4]triazolo[1,5-a]pyridine-7-carboxylic acid cyclopropylmethyl-propyl-amide]	94 nM	2.2 nM	42.7
CCN1CCN(C(=O)c2cc(N)n3nc(-c4ccc(Br)o4)nc3c2)CC1 [Example 299, [5-Amino-2-(5-bromo-furan-2-yl)-[1,2,4]triazolo[1,5-a]pyridin-7-yl]-(4-ethyl-piperazin-1-yl)-methanone]	1600 nM	123 nM	13.0
NC(=O)C1CCN(C(=O)c2cc(N)n3nc(-c4ccc(Br)o4)nc3c2)CC1 [Example 300, 1-[5-Amino-2-(5-bromo-furan-2-yl)-[1,2,4]triazolo[1,5-a]pyridine-7-carbonyl]-piperidine-4-carboxylic acid amide]	385 nM	74.7 nM	5.2
CC1CCC(C)N1C(=O)c1cc(N)n2nc(-c3nccs3)nc2c1 (stereo not drawn) [Example 301]	1900 nM	62.1 nM	30.5
CC1C=CC(C)N1C(=O)c1cc(N)n2nc(-c3nccs3)nc2c1 (stereo not drawn) [Example 302]	2020 nM	104 nM	19.4
CC1CCCC(C)N1C(=O)c1cc(N)n2nc(-c3ccc(Br)o3)nc2c1 (stereo not drawn) [Example 303, [5-Amino-2-(5-bromo-furan-2-yl)-[1,2,4]triazolo[1,5-a]pyridin-7-yl]-(2,6-dimethyl-piperidin-1-yl)-methanone]	1300 nM	149 nM	8.7
CC1CN(C(=O)c2cc(N)n3nc(-c4ccc(Br)o4)nc3c2)CC(C)O1 (stereo not drawn) [Example 304, [5-Amino-2-(5-bromo-furan-2-yl)-[1,2,4]triazolo[1,5-a]pyridin-7-yl]-(2,6-dimethyl-morpholin-4-yl)-methanone]	382 nM	9.3 nM	41.0
COCCN(CCOC)C(=O)c1cc(N)n2nc(-c3ccc(Br)o3)nc2c1 [Example 305, 5-Amino-2-(5-bromo-furan-2-yl)-[1,2,4]triazolo[1,5-a]pyridine-7-carboxylic acid bis-(2-methoxy-ethyl)-amide]	139 nM	5.2 nM	26.8
CCN(Cc1ccccc1)C(=O)c1cc(N)n2nc(-c3ccc(Br)o3)nc2c1 [Example 307, 5-Amino-2-(5-bromo-furan-2-yl)-[1,2,4]triazolo[1,5-a]pyridine-7-carboxylic acid benzyl-ethyl-amide]	21.2 nM	1.7 nM	12.5
CN(CCc1ccccn1)C(=O)c1cc(N)n2nc(-c3ccc(Br)o3)nc2c1 [Example 308, 5-Amino-2-(5-bromo-furan-2-yl)-[1,2,4]triazolo[1,5-a]pyridine-7-carboxylic acid methyl-(2-pyridin-2-yl-ethyl)-amide]	463 nM	9.8 nM	47.2
CCN(CC)CCN(CC)C(=O)c1cc(N)n2nc(-c3ccc(Br)o3)nc2c1 [Example 309, 5-Amino-2-(5-bromo-furan-2-yl)-[1,2,4]triazolo[1,5-a]pyridine-7-carboxylic acid (2-diethylamino-ethyl)-ethyl-amide]	488 nM	49.5 nM	9.9
Nc1cc(C(=O)N2CCN(Cc3ccccc3)CC2)cc2nc(-c3ccc(Br)o3)nn12 [Example 310, [5-Amino-2-(5-bromo-furan-2-yl)-[1,2,4]triazolo[1,5-a]pyridin-7-yl]-(4-benzyl-piperazin-1-yl)-methanone]	314 nM	148 nM	2.1
Nc1cc(C(=O)N(CC(F)(F)F)CC(F)(F)F)cc2nc(-c3ccc(Br)o3)nn12 [Example 311, 5-Amino-2-(5-bromo-furan-2-yl)-[1,2,4]triazolo[1,5-a]pyridine-7-carboxylic acid bis-(2,2,2-trifluoro-ethyl)-amide]	577 nM	25.8 nM	22.3
Nc1cc(C(=O)N2CC=C(c3ccccc3)CC2)cc2nc(-c3ccc(Br)o3)nn12 [Example 312, [5-Amino-2-(5-bromo-furan-2-yl)-[1,2,4]triazolo[1,5-a]pyridin-7-yl]-(4-phenyl-3,6-dihydro-2H-pyridin-1-yl)-methanone]	227 nM	21.8 nM	10.4
Nc1cc(C(=O)N(Cc2ccccc2)Cc2ccccc2)cc2nc(-c3ccc(Br)o3)nn12 [Example 313, 5-Amino-2-(5-bromo-furan-2-yl)-[1,2,4]triazolo[1,5-a]pyridine-7-carboxylic acid dibenzylamide]	17.8 nM	1.2 nM	14.8
CCN(Cc1ccncc1)C(=O)c1cc(N)n2nc(-c3ccc(Br)o3)nc2c1 [Example 314, 5-Amino-2-(5-bromo-furan-2-yl)-[1,2,4]triazolo[1,5-a]pyridine-7-carboxylic acid ethyl-pyridin-4-ylmethyl-amide]	59.1 nM	1.2 nM	49.3
Nc1cc(C(=O)N2CC=CCC2)cc2nc(-c3nccs3)nn12 [Example 315, (5-Amino-2-thiazol-2-yl-[1,2,4]triazolo[1,5-a]pyridin-7-yl)-(3,6-dihydro-2H-pyridin-1-yl)-methanone]	1990 nM	97.5 nM	20.4
CC1CCCN(C(=O)c2cc(N)n3nc(-c4nccs4)nc3c2)C1 (stereo not drawn) [Example 316, (5-Amino-2-thiazol-2-yl-[1,2,4]triazolo[1,5-a]pyridin-7-yl)-(3,methyl-piperidin-1-yl)-methanone]	2190 nM	72.3 nM	30.3
Nc1cc(C(=O)N2CCCCCC2)cc2nc(-c3nccs3)nn12 [Example 317, (5-Amino-2-thiazol-2-yl-[1,2,4]triazolo[1,5-a]pyridin-7-yl)-azepan-1-yl-methanone]	1160 nM	34.5 nM	33.6
CCCN(CC1CC1)C(=O)c1cc(N)n2nc(-c3nccs3)nc2c1 [Example 319, 5-Amino-2-thiazol-2-yl-[1,2,4]triazolo[1,5-a]pyridine-7-carboxylic acid cyclopropylmethyl-propyl-amide]	1240 nM	87 nM	14.3
CC1CCCC(C)N1C(=O)c1cc(N)n2nc(-c3nccs3)nc2c1 (stereo not drawn) [Example 320]	614 nM	82.7 nM	7.4
CN(CCc1ccccc1)C(=O)c1cc(N)n2nc(-c3nccs3)nc2c1 [Example 322, 5-Amino-2-thiazol-2-yl-[1,2,4]triazolo[1,5-a]pyridine-7-carboxylic acid methyl-phenethyl-amide]	1220 nM	127 nM	9.6
CCN(Cc1ccccc1)C(=O)c1cc(N)n2nc(-c3nccs3)nc2c1 [Example 323, 5-Amino-2-thiazol-2-yl-[1,2,4]triazolo[1,5-a]pyridine-7-carboxylic acid benzyl-ethyl-amide]	342 nM	25.2 nM	13.6

From patent US6506772B1, “Substituted [1,2,4]triazolo[1,5a]pyridine derivatives with activity as adenosine receptor ligands” (Hoffmann-La Roche Inc., priority 2000, dated 2003)
